# Results as given in patent US11352349B2, “Type II topoisomerase inhibitors and methods of making and using thereof” (Ohio State Innovation Foundation, priority 2017, dated 2022).
# Experiments:
# USA 300 strain of MRSA = test: MIC by broth microdilution, USA 300 strain of MRSA; assay type: cell-based, Staphylococcus aureus; conditions: Staphylococcus aureus, multiple values when multiple MIC assays were conducted, read-out: MIC USA300
# Method: Minimum inhibitory concentrations were determined using the quality control strain S. aureus ATCC 29213 (Table 1) by the broth microdilution method according to guidelines of the Clinical and Laboratory Standards Institute (CLSI) (Cockerill, F. R.; et al., 2012, Methods for dilution antimicrobial susceptibility tests for bacteria that grow aerobically; approved standard-ninth edition. MA07-A9. Clinical and Laboratory Standard Institute, Wayne, Pa.). […] MICs for selected compounds were also determined using a USA 300 strain of MRSA (Hidron, et al., Lancet Infect. Dis. 2009, 9:384-392). Vancomycin was used as an additional control.
# S. aureus ATCC 29213 = test: MIC by broth microdilution (CLSI), quality control strain S. aureus ATCC 29213; assay type: cell-based, Staphylococcus aureus; conditions: multiple values when multiple MIC assays were conducted; for MIC: Staphylococcus aureus, ATCC29213, S. aureus ATCC 29213
# Method: Minimum inhibitory concentrations were determined using the quality control strain S. aureus ATCC 29213 (Table 1) by the broth microdilution method according to guidelines of the Clinical and Laboratory Standards Institute (CLSI) (Cockerill, F. R.; et al., 2012, Methods for dilution antimicrobial susceptibility tests for bacteria that grow aerobically; approved standard-ninth edition. MA07-A9. Clinical and Laboratory Standard Institute, Wayne, Pa.). […] Published quality control ranges for gepotidacin and ciprofloxacin were used to validate each assay. MICs for selected compounds were also determined using a USA 300 strain of MRSA (Hidron, et al., Lancet Infect. Dis. 2009, 9:384-392). Vancomycin was used as an additional control.
MIC (USA 300 strain of MRSA) [µg/mL],MIC (S. aureus ATCC 29213) [µg/mL],MIC 29213 (S. aureus ATCC 29213; S. aureus ATCC 29213) [µg/mL],Compound
4,2,–,"COc1ccc2nccc(CC[C@H]3OC[C@H](NCc4ccc(C(C)(C)C)cc4)CO3)c2c1 [AB-0082, N-(4-(tert-butyl)benzyl)-2-(2-(6-methoxyquinolin-4-yl)ethyl)-trans-1,3-dioxan-5-amine]"
–,32,–,"COc1ccc2nccc(CC[C@H]3OC[C@H](NCc4cccc(Cl)c4)CO3)c2c1 [AB-0037, N-(3-chlorobenzyl)-2-(2-(6-methoxyquinolin-4-yl)ethyl)-trans-1,3-dioxan-5-amine]"
–,> 64,–,"COc1ccc2nccc(CC[C@H]3OC[C@H](NCc4ccc(F)cc4)CO3)c2c1 [AB-0041, N-(4-fluorobenzyl)-2-(2-(6-methoxyquinolin-4-yl)ethyl)-trans-1,3-dioxan-5-amine]"
–,64,–,"COc1ccc2nccc(CC[C@H]3OC[C@H](NCc4cccc(C#N)c4)CO3)c2c1 [AB-0026, 3-(((2-(2-(6-methoxyquinolin-4-yl)ethyl)-trans-1,3-dioxan-5-yl)amino)methyl)benzonitrile]"
–,4,–,"COc1ccc2ncc(=O)n(CC[C@H]3OC[C@H](NCc4ccc(Cl)c(Cl)c4)CO3)c2c1 [AB-0007, 1-(2-(5-((3,4-dichlorobenzyl)amino)-trans-1,3-dioxan-2-yl)ethyl)-7-methoxyquinoxalin-2(1H)-one]"
–,64,–,"COc1ccc2nccc(CC[C@H]3OC[C@H](NCc4ccc(F)cc4F)CO3)c2c1 [AB-0039, N-(2,4-difluorobenzyl)-2-(2-(6-methoxyquinolin-4-yl)ethyl)-trans-1,3-dioxan-5-amine]"
–,16,32,"COc1ccc2nccc(CC[C@H]3OC[C@H](NC(=O)c4ccccc4)CO3)c2c1 [AB-0075, N-(2-(2-(6-methoxyquinolin-4-yl)ethyl)-trans-1,3-dioxan-5-yl)benzamide]"
–,> 64,–,"COc1ccc2nccc(CC[C@H]3OC[C@H](NCc4cccs4)CO3)c2c1 [AB-0036, 2-(2-(6-methoxyquinolin-4-yl)ethyl)-N-(thiophen-2-ylmethyl)-trans-1,3-dioxan-5-amine]"
–,8,–,COc1ccc2nccc(CC[C@H]3OC[C@H](NCc4ccccn4)CO3)c2c1 [AB-0048]
–,8,–,"COc1ccc2nccc(CC[C@H]3OC[C@H](NC(=O)c4ccc5c(c4)OCCO5)CO3)c2c1 [AB-0088, N-(2-(2-(6-methoxyquinolin-4-yl)ethyl)-trans-1,3-dioxan-5-yl)-2,3-dihydrobenzo[b][1,4]dioxine-6-carboxamide]"
–,4,–,"COc1ccc2ncc(=O)n(CC(O)[C@H]3OC[C@H](NCc4ccc5c(n4)NC(=O)CO5)CO3)c2c1 (relative stereo) [AB-0078, 6-(((2-(1-hydroxy-2-(7-methoxy-2-oxoquinoxalin-1(2H)-yl)ethyl)-trans-1,3-dioxan-5-yl)amino)methyl)-2H-pyrido[3,2-b][1,4]oxazin-3(4H)-one]"
–,16,–,"COc1cccc(CN[C@H]2CO[C@H](CCc3ccnc4ccc(OC)cc34)OC2)c1 [AB-0034, N-(3-methoxybenzyl)-2-(2-(6-methoxyquinolin-4-yl)ethyl)-trans-1,3-dioxan-5-amine]"
–,> 64,–,"COc1ccc2nccc(CC[C@H]3OC[C@H](NCc4c(F)cccc4F)CO3)c2c1 [AB-0025, N-(2,6-difluorobenzyl)-2-(2-(6-methoxyquinolin-4-yl)ethyl)-trans-1,3-dioxan-5-amine]"
–,16,–,"COc1ccc2nccc(CC[C@H]3OC[C@H](NCc4cccc(C)c4)CO3)c2c1 [AB-0042, 2-(2-(6-methoxyquinolin-4-yl)ethyl)-N-(3-methylbenzyl)-trans-1,3-dioxan-5-amine]"
–,64,–,"COc1ccc2nccc(CC[C@H]3OC[C@H](NCc4ccc(F)c(F)c4)CO3)c2c1 [AB-0024, N-(3,4-difluorobenzyl)-2-(2-(6-methoxyquinolin-4-yl)ethyl)-trans-1,3-dioxan-5-amine]"
–,> 64,–,"COc1ccc2nccc(CC[C@H]3OC[C@H](NCc4cccnc4)CO3)c2c1 [AB-0049, 2-(2-(6-methoxyquinolin-4-yl)ethyl)-N-(pyridin-3-ylmethyl)-trans-1,3-dioxan-5-amine]"
–,> 64,–,"COc1ccc2nccc(CC[C@H]3OC[C@H](NCc4ccccc4C)CO3)c2c1 [AB-0032, 2-(2-(6-methoxyquinolin-4-yl)ethyl)-N-(2-methylbenzyl)-trans-1,3-dioxan-5-amine]"
–,> 64,–,"COc1ccc2nccc(CC[C@H]3OC[C@H](NCc4ccccc4Cl)CO3)c2c1 [AB-0043, N-(2-chlorobenzyl)-2-(2-(6-methoxyquinolin-4-yl)ethyl)-trans-1,3-dioxan-5-amine]"

MIC (USA 300 strain of MRSA) [µg/mL],MIC (S. aureus ATCC 29213) [µg/mL],MIC 29213 (S. aureus ATCC 29213; S. aureus ATCC 29213) [µg/mL],Compound
–,8,–,"COc1ccc2ncc(=O)n(CC[C@H]3OC[C@H](NCc4cc5c(cn4)OCCO5)CO3)c2c1 [AB-0003, 1-(2-(5-(((2,3-dihydro-[1,4]dioxino[2,3-c]pyridin-7-yl)methyl)amino)-1,3-trans-dioxan-2-yl)ethyl)-7-methoxyquinoxalin-2(1H)-one]"
–,8,–,"COc1ccc2nccc(CC[C@H]3OC[C@H](NCc4ccc(Cl)cn4)CO3)c2c1 [AB-0069, N-((5-chloropyridin-2-yl)methyl)-2-(2-(6-methoxyquinolin-4-yl)ethyl)-trans-1,3-dioxan-5-amine]"
–,32,–,"COc1ccc2nccc(CC[C@H]3OC[C@H](NCc4ccc(OC)nc4)CO3)c2c1 [AB-0056, N-((6-methoxypyridin-3-yl)methyl)-2-(2-(6-methoxyquinolin-4-yl)ethyl)-trans-1,3-dioxan-5-amine]"
–,> 64,–,"COc1ccc2nccc(CC[C@H]3OC[C@H](NCc4ccccc4OC)CO3)c2c1 [AB-0027, N-(2-methoxybenzyl)-2-(2-(6-methoxyquinolin-4-yl)ethyl)-trans-1,3-dioxan-5-amine]"
1,–,–,"COc1ccc2ncc(=O)n(CC(O)[C@H]3OC[C@H](NCc4ccc5c(c4)OCCO5)CO3)c2c1 (stereo partly drawn) [AB-0076, 1-(2-(5-(((2,3-dihydrobenzo[b][1,4]dioxin-6-yl)methyl)amino)-trans-1,3-dioxan-2-yl)-2-hydroxyethyl)-7-methoxyquinoxalin-2(1H)-one]"
–,≤ 0.5,–,"COc1ccc2nccc(CC[C@H]3OC[C@H](NC(=O)c4ccc(Cl)c(Cl)c4)CO3)c2c1 [AB-0089, 3,4-dichloro-N-(2-(2-(6-methoxyquinolin-4-yl)ethyl)-trans-1,3-dioxan-5-yl)benzamide]"
–,32,–,"COc1ccc2nccc(CC[C@H]3OC[C@H](NCc4cccc(F)c4)CO3)c2c1 [AB-0050, N-(3-fluorobenzyl)-2-(2-(6-methoxyquinolin-4-yl)ethyl)-trans-1,3-dioxan-5-amine]"
–,> 64,–,"COc1ccc2nccc(CC[C@H]3OC[C@H](NCc4cccc(OC)n4)CO3)c2c1 [AB-0040, N-((6-methoxypyridin-2-yl)methyl)-2-(2-(6-methoxyquinolin-4-yl)ethyl)-trans-1,3-dioxan-5-amine]"
–,64,–,"COc1ccc2nccc(CC[C@H]3OC[C@H](NCCc4ccccc4)CO3)c2c1 [AB-0045, 2-(2-(6-methoxyquinolin-4-yl)ethyl)-N-phenethyl-trans-1,3-dioxan-5-amine]"
–,64,–,"COc1ccc2nccc(CC[C@H]3OC[C@H](NCc4cccc(F)c4F)CO3)c2c1 [AB-0028, N-(2,3-difluorobenzyl)-2-(2-(6-methoxyquinolin-4-yl)ethyl)-trans-1,3-dioxan-5-amine]"
–,16,–,"COc1ccc2nccc(CC[C@H]3OC[C@H](NCc4cc(F)cc(F)c4)CO3)c2c1 [AB-0029, N-(3,5-difluorobenzyl)-2-(2-(6-methoxyquinolin-4-yl)ethyl)-trans-1,3-dioxan-5-amine]"
–,8,–,"COc1ccc2ncc(=O)n(CC[C@H]3OC[C@H](NCc4cc5c(cn4)OCCC5)CO3)c2c1 [AB-0006, 1-(2-(5-(((3,4-dihydro-2H-pyrano[2,3-c]pyridin-6-yl)methyl)amino)-trans-1,3-dioxan-2-yl)ethyl)-7-methoxyquinoxalin-2(1H)-one]"
–,64,–,"COc1ccc2nccc(CC[C@H]3OC[C@H](NCc4cc(F)ccc4F)CO3)c2c1 [AB-0022, N-(2,5-difluorobenzyl)-2-(2-(6-methoxyquinolin-4-yl)ethyl)-trans-1,3-dioxan-5-amine]"
–,4,–,"COc1ccc2nccc(CC[C@H]3OC[C@H](NCc4ccc(C)cn4)CO3)c2c1 [AB-0070, 2-(2-(6-methoxyquinolin-4-yl)ethyl)-N-((5-methylpyridin-2-yl)methyl)-trans-1,3-dioxan-5-amine]"
–,> 64,–,"COc1ccc2nccc(CC[C@H]3OC[C@H](NCc4ccccc4F)CO3)c2c1 [AB-0033, N-(2-fluorobenzyl)-2-(2-(6-methoxyquinolin-4-yl)ethyl)-trans-1,3-dioxan-5-amine]"
–,> 64,–,"COc1ccc2nccc(CC[C@H]3OC[C@H](NCc4ccsc4)CO3)c2c1 [AB-0035, 2-(2-(6-methoxyquinolin-4-yl)ethyl)-N-(thiophen-3-ylmethyl)-trans-1,3-dioxan-5-amine]"
–,> 64,–,"COc1ccc2nccc(CC[C@H]3OC[C@H](NCc4ccccc4)CO3)c2c1 [AB-0038, N-benzyl-2-(2-(6-methoxyquinolin-4-yl)ethyl)-trans-1,3-dioxan-5-amine]"
–,4,–,"COc1ccc2nccc(CC[C@H]3OC[C@H](NCc4ccc(OC(F)F)cc4)CO3)c2c1 [AB-0084, N-(4-(difluoromethoxy)benzyl)-2-(2-(6-methoxyquinolin-4-yl)ethyl)-trans-1,3-dioxan-5-amine]"
